Experimental findings from US9120756B2, “Substituted phenylureas and phenylamides as vanilloid receptor ligands” (Gruenenthal GmbH, priority 2009, dated 2015) are described below.

Common to all, as to format: cell-based
Assay [1] addresses T1, hVR1 (Homo sapiens (Human), UniProt Q8NER1). Nature of the assay: FLIPR assay human VR1, 45° C. stimulus. Details: key to IC50 (human being) 45° C. column: result in words (AG): AG=agonist; pAG=partial agonist; NE=no effect. The following applies: for IC50: read-out: IC50 (human being) [nM], 45° C. From the text:
The agonistic or antagonistic effect of the substances to be tested on the vanilloid receptor 1 (VR1) can also be determined using the following assay. In this assay, the influx of Ca^2+ through the channel is quantified with the aid of a Ca^2+-sensitive dye (type Fluo-4, Molecular Probes Europe BV, Leiden, the Netherlands) in a fluorescent imaging plate reader (FLIPR, Molecular Devices, Sunnyvale, USA).
Chinese hamster ovary cells (CHO K1 cells, European Collection of Cell Cultures (ECACC) United Kingdom) are stably transfected with the VR1 gene. For functional testing, these cells are plated out on poly-D-lysine-coated black 96-well plates having a clear base (BD Biosciences, Heidelberg, Germany) at a density of 25,000 cells/well. The cells are incubated overnight at 37° C. and 5% CO2 in a culture medium (Ham's F12 nutrient mixture, 10% by volume of FCS (foetal calf serum), 18 μg/ml of L-proline). The next day the cells are incubated with Fluo-4 (Fluo-4 2 μM, 0.01% by volume of Pluronic F127, Molecular Probes in HBSS (Hank's buffered saline solution), Gibco Invitrogen GmbH, Karlsruhe, Germany) for 30 minutes at 37° C. Subsequently, the plates are washed three times with HBSS buffer and after further incubation for 15 minutes at RT used for Ca^2+ measurement in a FLIPR assay. The Ca^2+-dependent fluorescence is measured before and after the addition of the substances to be tested (λex wavelength=488 nm, λem=540 nm). Quantification is carried out by measuring the highest fluorescence intensity (FC, fluorescence counts) over time.
The FLIPR protocol consists of 2 substance additions. […]
Desensitising agonists and antagonists led to suppression of the Ca^2+ influx.
Ki values for the test substances were obtained by conversion by means of the Cheng-Prusoff equation (Cheng, Prusoff; Biochem. Pharmacol. 22, 3099-3108, 1973).

Assay [2] has as its target T1, hVR1. The assay is described as follows: FLIPR assay hVR1, after pH stimulus. Details: key to IC50 (human being) hVR1 pH: result in words (NE / AG): AG=agonist; pAG=partial agonist; NE=no effect. The following applies: for inhibition at 10 µM: read-out: IC50 (human being) hVR1 pH: inhibition (as a percentage) @ 10 μM, inhibition determined at 10 μM; for IC50: read-out: IC50 (human being) hVR1 [nM], pH. As for the experimental part:
(§1) In this assay, the influx of Ca^2+ through the channel is quantified with the aid of a Ca^2+-sensitive dye (type Fluo-4, Molecular Probes Europe BV, Leiden, the Netherlands) in a fluorescent imaging plate reader (FLIPR, Molecular Devices, Sunnyvale, USA). Chinese hamster ovary cells (CHO K1 cells, European Collection of Cell Cultures (ECACC) United Kingdom) are stably transfected with the VR1 gene. For functional testing, these cells are plated out on poly-D-lysine-coated black 96-well plates having a clear base (BD Biosciences, Heidelberg, Germany) at a density of 25,000 cells/well. […] Subsequently, the plates are washed three times with HBSS buffer and after further incubation for 15 minutes at RT used for Ca^2+ measurement in a FLIPR assay. […] Quantification is carried out by measuring the highest fluorescence intensity (FC, fluorescence counts) over time. The FLIPR protocol consists of 2 substance additions. […] Desensitising agonists and antagonists led to suppression of the Ca^2+ influx. […] Ki values for the test substances were obtained by conversion by means of the Cheng-Prusoff equation (Cheng, Prusoff; Biochem. Pharmacol. 22, 3099-3108, 1973).

Assay [3] addresses T1, hVR1. Nature of the assay: FLIPR Ca2+ influx assay on CHO K1 cells transfected with the VR1 gene, capsaicin stimulus (method II). Details: key to Ki (human being) Cap: result in words (NE / AG): AG=agonist; pAG=partial agonist; NE=no effect. The note with it: for Ki: capsaicin (Cap), read-out: Ki (human being) [nM] Cap.
In assay [4] the target is rat-species vanilloid receptor 1 (VR1/TRPV1) (Rattus norvegicus (Rat), UniProt O35433). The assay is described as follows: FLIPR Ca2+ influx assay on rat dorsal root ganglia cells, capsaicin stimulus (method I). The following applies: for Ki: capsaicin (Cap). As for the experimental part: The agonistic or antagonistic effect of the substances to be tested on the rat-species vanilloid receptor 1 (VR1/TRPV1) can be determined using the following assay. In this assay, the influx of Ca^2+ through the receptor channel is quantified with the aid of a Ca^2+-sensitive dye (type Fluo-4, Molecular Probes Europe BV, Leiden, the Netherlands) in a fluorescent imaging plate reader (FLIPR, Molecular Devices, Sunnyvale, USA).
Complete medium: 50 ml HAMS F12 nutrient mixture (Gibco Invitrogen GmbH, Karlsruhe, Germany) with
10% by volume of FCS (foetal calf serum, Gibco Invitrogen GmbH, Karlsruhe, Germany, heat-inactivated);
2 mM L-glutamine (Sigma, Munich, Germany);
1% by weight of AA solution (antibiotic/antimyotic solution, PAA, Pasching, Austria) and 25 ng/ml NGF medium (2.5 S, Gibco Invitrogen GmbH, Karlsruhe, Germany)
Cell culture plate: Poly-D-lysine-coated, black 96-well plates having a clear base (96-well black/clear plate, BD Biosciences, Heidelberg, Germany) are additionally coated with laminin (Gibco Invitrogen GmbH, Karlsruhe, Germany), the laminin being diluted with PBS (Ca—Mg-free PBS, Gibco Invitrogen GmbH, Karlsruhe, Germany) to a concentration of 100 μg/ml. Aliquots having a laminin concentration of 100 μg/ml are removed and stored at −20° C. The aliquots are diluted with PBS in a ratio of 1:10 to 10 μg/ml of laminin and respectively 50 μL of the solution are pipetted into a recess in the cell culture plate. The cell culture plates are incubated for at least two hours at 37° C., the excess solution is removed by suction and the recesses are each washed twice with PBS. The coated cell culture plates are stored with excess PBS which is not removed until just before the feeding of the cells.
The vertebral column is removed from decapitated rats and placed immediately into cold HBSS buffer (Hank's buffered saline solution, Gibco Invitrogen GmbH, Karlsruhe, Germany), i.e. buffer located in an ice bath, mixed with 1% by volume (percent by volume) of an AA solution (antibiotic/antimyotic solution, PAA, Pasching, Austria). The vertebral column is cut longitudinally and removed together with fasciae from the vertebral canal. Subsequently, the dorsal root ganglia (DRG) are removed and again stored in cold HBSS buffer mixed with 1% by volume of an AA solution. The DRG, from which all blood remnants and spinal nerves have been removed, are transferred in each case to 500 μL of cold type 2 collagenase (PAA, Pasching, Austria) and incubated for 35 minutes at 37° C. After the addition of 2.5% by volume of trypsin (PAA, Pasching, Austria), incubation is continued for 10 minutes at 37° C. After complete incubation, the enzyme solution is carefully pipetted off and 500 μL of complete medium are added to each of the remaining DRG. […] The contents of each Falcon tube are respectively filtered through a 70 μm Falcon filter element and centrifuged for 10 minutes at 1,200 rpm and RT. The resulting pellet is respectively taken up in 250 μL of complete medium and the cell count is determined.
The number of cells in the suspension is set to 3×10^5 per ml and 150 μL of this suspension are in each case introduced into a recess in the cell culture plates coated as described hereinbefore. […] Subsequently, the cells are loaded with 2 μM of Fluo-4 and 0.01% by volume of Pluronic F127 (Molecular Probes Europe BV, Leiden, the Netherlands) in HBSS buffer (Hank's buffered saline solution, Gibco Invitrogen GmbH, Karlsruhe, Germany) for 30 min at 37° C., washed 3 times with HBSS buffer and after further incubation for 15 minutes at RT used for Ca^2+ measurement in a FLIPR assay. The Ca^2+-dependent fluorescence is in this case measured before and after the addition of substances (λex=488 nm, λem=540 nm). Quantification is carried out by measuring the highest fluorescence intensity (FC, fluorescence counts) over time.
The FLIPR protocol consists of 2 substance additions.

Assay [5] addresses T1, hVR1. Nature of the assay: FLIPR assay human VR1, NADA (N-arachidonoyl dopamine) stimulus. Details: key: AG=agonist; pAG=partial agonist; NE=no effect. How it is done:
as §1

T1 sequence (Q8NER1 whole entry): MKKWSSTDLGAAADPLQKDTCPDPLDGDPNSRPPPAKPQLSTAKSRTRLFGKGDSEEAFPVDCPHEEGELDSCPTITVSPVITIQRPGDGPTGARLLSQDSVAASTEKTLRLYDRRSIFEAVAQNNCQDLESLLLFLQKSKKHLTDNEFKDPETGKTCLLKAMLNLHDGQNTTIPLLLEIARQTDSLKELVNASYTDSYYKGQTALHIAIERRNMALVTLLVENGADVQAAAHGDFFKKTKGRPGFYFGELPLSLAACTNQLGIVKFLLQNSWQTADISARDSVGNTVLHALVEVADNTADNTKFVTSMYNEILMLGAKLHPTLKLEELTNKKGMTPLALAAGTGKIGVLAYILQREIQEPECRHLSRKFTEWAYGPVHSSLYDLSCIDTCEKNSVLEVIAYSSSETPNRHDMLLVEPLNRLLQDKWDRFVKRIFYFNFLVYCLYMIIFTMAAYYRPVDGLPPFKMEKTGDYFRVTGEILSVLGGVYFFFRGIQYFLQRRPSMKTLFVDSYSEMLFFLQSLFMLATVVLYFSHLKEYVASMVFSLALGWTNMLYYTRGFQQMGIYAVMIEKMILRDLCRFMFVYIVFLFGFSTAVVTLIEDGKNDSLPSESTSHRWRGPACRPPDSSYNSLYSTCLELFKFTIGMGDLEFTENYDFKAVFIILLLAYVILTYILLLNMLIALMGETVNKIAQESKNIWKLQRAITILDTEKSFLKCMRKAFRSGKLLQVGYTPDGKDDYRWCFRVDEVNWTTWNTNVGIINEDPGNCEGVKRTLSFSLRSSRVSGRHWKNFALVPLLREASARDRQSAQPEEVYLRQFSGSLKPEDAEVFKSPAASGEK
rat-species vanilloid receptor 1 (VR1/TRPV1), sequence (O35433 whole entry): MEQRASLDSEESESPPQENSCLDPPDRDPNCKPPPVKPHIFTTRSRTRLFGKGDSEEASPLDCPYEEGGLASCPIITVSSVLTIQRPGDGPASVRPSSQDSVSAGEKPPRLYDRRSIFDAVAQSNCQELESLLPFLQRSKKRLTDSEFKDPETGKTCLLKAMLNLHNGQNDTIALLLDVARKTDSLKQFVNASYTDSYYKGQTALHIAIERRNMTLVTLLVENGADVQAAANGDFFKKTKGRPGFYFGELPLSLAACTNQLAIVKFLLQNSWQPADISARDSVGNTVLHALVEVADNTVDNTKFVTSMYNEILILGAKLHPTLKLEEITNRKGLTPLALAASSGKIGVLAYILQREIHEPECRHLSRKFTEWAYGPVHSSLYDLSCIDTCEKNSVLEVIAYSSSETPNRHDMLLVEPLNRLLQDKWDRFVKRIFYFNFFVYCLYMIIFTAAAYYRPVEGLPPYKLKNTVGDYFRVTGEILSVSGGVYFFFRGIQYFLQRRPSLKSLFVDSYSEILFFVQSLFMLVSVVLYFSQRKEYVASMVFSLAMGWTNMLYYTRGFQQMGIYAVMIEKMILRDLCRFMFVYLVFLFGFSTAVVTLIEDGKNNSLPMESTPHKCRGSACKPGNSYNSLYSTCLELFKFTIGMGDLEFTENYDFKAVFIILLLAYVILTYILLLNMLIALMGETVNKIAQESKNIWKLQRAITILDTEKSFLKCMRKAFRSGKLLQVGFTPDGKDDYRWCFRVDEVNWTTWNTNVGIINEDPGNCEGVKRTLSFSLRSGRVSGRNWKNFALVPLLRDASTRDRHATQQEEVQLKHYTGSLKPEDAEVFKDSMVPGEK

Turning to `CC(C(=O)NCc1cc(C(C)(C)C)nn1-c1cccc(Cl)c1)c1cc(F)c(NS(C)(=O)=O)c(F)c1` (stereo not shown) [Example 29, N-((3-tert-butyl-1-(3-chlorophenyl)-1H-pyrazol-5-yl)methyl)-2-(3,5-difluoro-4-(methylsulphonamido)phenyl)propanamide], the inhibition at 2 µM on hVR1 [1] (read-out: IC50 (human being) 45° C. column: inhibition (as a percentage) @ 2 μM, inhibition determined at 2 μM) is 34%. Also, the inhibition at 10 µM at hVR1 [2] was 42%. The Ki on hVR1 [3] came to 1.2 nM.

Regarding `C[C@H](C(=O)NCc1cc(C(F)(F)F)nn1-c1ccc(Cl)cc1)c1ccc(NS(C)(=O)=O)c(F)c1` [Example 23, (S)-N-((1-(4-chlorophenyl)-3-(trifluoromethyl)-1H-pyrazol-5-yl)methyl)-2-(3-fluoro-4-(methylsulphonamido)phenyl)propanamide], the IC50 at hVR1 [1] is 16.1 nM; at hVR1 [2], 47.1 nM. For the same compound, the values for the Ki (at hVR1 [3]; in assay [4]) were 0.3 nM and 0.4 nM, respectively.

As to `COc1cc(C(C)C(=O)NCc2cc(C(F)(F)F)nn2-c2cccc(Cl)c2)ccc1NS(C)(=O)=O` (stereo not shown) [Example 28, N-((1-(3-chlorophenyl)-3-(trifluoromethyl)-1H-pyrazol-5-yl)methyl)-2-(3-methoxy-4-(methylsulphonamido)phenyl)propanamide], the IC50 at hVR1 [1] came to 665 nM; at hVR1 [2] it was 16 nM. The Ki on hVR1 [3] turned out to be 0.4 nM.

Take `CC(C(=O)NCc1cc(C(C)(C)C)nn1-c1cccc(Cl)c1)c1ccc(S(=O)(=O)N(C)C)c(F)c1` (stereo not shown) [Example 49, N-((3-tert-butyl-1-(3-chlorophenyl)-1H-pyrazol-5-yl)methyl)-2-(4-(N,N-dimethylsulphamoyl)-3-fluorophenyl)propanamide]: the “IC50 (human being) 45° C. column: result in words (AG)” value at hVR1 [1] is given as “AG”. Besides, at hVR1 [5], the “Ki (human being) NADA column: result in words (AG)” value is given as “AG”. Besides, the “IC50 (human being) hVR1 pH: result in words (NE / AG)” value at hVR1 [2] is “AG”. For the same compound, on hVR1 [3] (capsaicin), the “Ki (human being) Cap: result in words (NE / AG)” value is given as “AG”.

`CC(C(=O)NCc1cc(C(C)(C)C)nn1-c1ccc(F)c(Cl)c1)c1ccc(NS(C)(=O)=O)c(F)c1` (stereo not shown) [Example 18, N-((3-tert-butyl-1-(3-chloro-4-fluorophenyl)-1H-pyrazol-5-yl)methyl)-2-(3-fluoro-4-(methylsulphonamido)phenyl)propanamide]: at hVR1 [1], the IC50 is 7 nM. The inhibition at 10 µM at hVR1 [2] was found to be 31%. Also, the Ki at hVR1 [3] came out at 0.5 nM.

With `CCCCCCn1nc(C(C)(C)C)cc1CNC(=O)C(C)c1ccc(NS(C)(=O)=O)c(F)c1` (stereo not shown) [Example 5, N-((3-tert-butyl-1-hexyl-1H-pyrazol-5-yl)methyl)-2-(3-fluoro-4-(methylsulphonamido)phenyl)propanamide], the IC50 on hVR1 [1] is 282 nM. Besides, the inhibition at 10 µM on hVR1 [2] worked out at 36%. The Ki at hVR1 [3] came to 50.2 nM. In addition, in assay [4] (read-out: Ki (rat) Cap column: inhibition (as a percentage) @ 1 μM, capsaicin, inhibition determined at 1 μM), the inhibition at 1 µM turned out to be 76%.

Regarding `CC(C(=O)NCc1cc(C(F)(F)F)nn1-c1ccc(Cl)cc1)c1ccc(NS(C)(=O)=O)c(F)c1` (stereo not shown) [Example 21, N-((1-(4-chlorophenyl)-3-(trifluoromethyl)-1H-pyrazol-5-yl)methyl)-2-(3-fluoro-4-(methylsulphonamido)phenyl)propanamide], the IC50 on hVR1 [1] is 27 nM; on hVR1 [2] it was 179 nM. For the same compound, the Ki at hVR1 [3] is 0.3 nM; in assay [4] it was 1.2 nM.

For `CC(C(=O)NCc1cc(C(F)(F)F)nn1-c1cccc(Cl)c1)c1ccc(C(F)(F)F)c(F)c1` (stereo not shown) [Example 141, N-((1-(3-chlorophenyl)-3-(trifluoromethyl)-1H-pyrazol-5-yl)methyl)-2-(3-fluoro-4-(trifluoromethyl)phenyl)propanamide], on hVR1 [1] (inhibition determined at 2.5 μM, read-out: IC50 (human being) 45° C. column: inhibition (as a percentage) @ 2.5 μM), the inhibition at 2.5 µM is 28%. The Ki stood at 13.6 nM at hVR1 [3] and 25.5 nM in assay [4].

As to `CC(C(=O)NCc1cc(C(C)(C)C)nn1-c1cccc(Cl)c1)c1ccc(NS(C)(=O)=O)c(F)c1` (stereo not shown) [Example 16, N-((3-tert-butyl-1-(3-chlorophenyl)-1H-pyrazol-5-yl)methyl)-2-(3-fluoro-4-(methylsulphonamido)phenyl)propanamide], at hVR1 [1] (inhibition determined at 0.625 μM, read-out: IC50 (human being) 45° C. column: inhibition (as a percentage) @ 0.625 μM), the inhibition at 0.625 µM was determined as 35%. Further, the “IC50 (human being) hVR1 pH: result in words (NE / AG)” value at hVR1 [2] was “NE”. Moreover, at hVR1 [3], the Ki came out at 0.3 nM.

As a reminder, the inhibition is the share of the control response that was lost under treatment. As a reminder, the Ki is the equilibrium dissociation constant of an inhibitor or competing ligand from its target. For orientation: IC50 means the concentration at which inhibition is half-maximal.
